Measurements published in PMC7178208 (International Journal of Molecular Sciences, 2020).
≈ marks a conversion by molar mass, not a printed value. Entries after “also recorded” stand apart in the source; their conditions may differ. Square brackets hold non-standard residues; d marks the D form. Peptide text beside a SMILES is read from it. * marks the point of attachment. FITC = O=C1OC2(c3ccc(O)cc3Oc3cc(O)ccc32)c2ccc(NC(=S)*)cc21; Bip = N[C@@H](Cc1ccc(-c2ccccc2)cc1)C(=O)O; Dip = N[C@H](C(=O)O)C(c1ccccc1)c1ccccc1; Ahx = NCCCCCC(=O)O

Key:
[1] = histidine residues replaced with non-natural amino acids; cited from earlier work
C. albicans [2] = experiment: Scanning electron microscopy, cell morphology; assay type: cell-based, Candida albicans; settings: 50 μM peptide, 10^7 CFU/mL, SD broth, 28 °C, 5 min
Experimental: Time-course morphological studies of C. albicans were performed by scanning electron microscopy (SEM). Overnight cultures of C. albicans were sub-cultured and grown in SD broth. Then, 10^7 CFU/mL of C. albicans was treated with 0.25 mM P-113 in SD broth at 28 °C. Samples were collected following 1, 2, 3, 4, 5, and 6 h of incubation. Another experiment was performed to observe the morphological changes caused over in a short time caused by Bip-P-113 and Dip-P-113. Briefly, 10^7 CFU/mL of C. albicans in SD broth was treated for 5 min at 28 °C with 50 μM P-113, Bip-P-113, and Dip-P-113. After harvest, cells were resuspended in fixation solution (2.5% glutaraldehyde in 20 mM phosphate buffer pH 7.4) and then placed on Thermanox substrate-coated cover slips at 4 °C for 12 h. The cover slips were carefully washed three times with 20 mM phosphate buffer (pH 7.4), followed by incubation in post-fixation solution (1% OsO4 in 20 mM phosphate buffer pH 7.4) at room temperature for an hour. After being washed three times with 20 mM phosphate buffer (pH 7.4), the cover slips were air-dried for an hour by dehydration with a graded series of ethanol. Samples were gold-coated and observed under an S-4700 field-emission (FE)-SEM (Hitachi, Ltd., Tokyo, Japan) at an acceleration voltage of 5 kV.

C. albicans [3] = experiment: Confocal laser microscopy, localization of FITC peptides; assay type: cell-based, Candida albicans; settings: 50 μM FITC-conjugated peptide, 10^7 CFU/mL, SD broth, 28 °C, 5 min
Experimental: Firstly, 10^7 CFU/mL of C. albicans was incubated with 0.25 mM FITC P-113 and 0.25 mM FITC alone (as a negative control) in SD broth at 28 °C for 1, 2, 3, 4, 5, and 6 h. Another experiment was performed to observe the short-term localization of Bip-P-113 and Dip-P-113 peptides. Briefly, log-phase C. albicans cultures were resuspended to a cell density of 10^7 CFU/mL in SD broth and treated for 5 min at 28 °C with 50 μM FITC-conjugated P-113, Bip-P-113, and Dip-P-113. After centrifugation, the cells were washed three times with 20 mM phosphate buffer (pH 7.4) to remove nonbinding peptides and fixed with 4% (w/v) paraformaldehyde in 20 mM phosphate buffer (pH 7.4) at room temperature for 20 min. Following fixation, the cells were centrifuged at 3500× g for 5 min, resuspended in phosphate buffer, and loaded onto a glass slide with a 1.4% solid agarose bed. The images were taken with a confocal laser scanning microscope (LSM 510 META, Carl Zeiss, Jena, Germany) equipped with a 40× C-Apochromat water-immersion objective lens (Carl Zeiss, Jena, Germany).

C. albicans [4] = experiment: Flow cytometry, fluorescence of cells incubated with FITC peptides; assay type: cell-based, Candida albicans; settings: 50 μM FITC peptide, 5 × 10^6 CFU/mL, SD broth, 28 °C, 30 min, n = 3
Experimental: Firstly, 5 × 10^6 CFU/mL of C. albicans cells were incubated with 50 µM FITC P-113, FITC N-terminal truncated P-113, and FITC C-terminal truncated P-113 peptides for 30 min at 28 °C in SD broth. The resuspended cell pellets described above were also used for flow cytometry experiments. Flow cytometric cell sorting was performed (10,000 events/sample) by using flow cytometry (BD Accuri™ C6 Plus Flow Cytomete, BD Biosciences, NJ, USA). The quantitative data were analyzed by Prism software.

C. albicans [5] = experiment: Fluorescence microscopy, localization of FITC truncated peptides; assay type: cell-based, Candida albicans; settings: 50 μM FITC peptide, 10^7 CFU/mL, SD broth, 28 °C, 30 min
Experimental: Firstly, 10^7 CFU/mL of C. albicans cells were incubated with 50 µM FITC N-terminal truncated P-113, FITC C-terminal truncated P-113 peptides, and FITC alone for 30 min at 28 °C in SD broth. After incubation, the cells were centrifuged at 3500× g for 5 min and then washed three times with 20 mM phosphate buffer (pH 7.4) to remove unbound peptides. The resulting pellets were resuspended and immobilized on the glass slips with a 1.4% solid agarose bed. Fluorescence images were captured using an inverted fluorescence microscope (ECLIPSE E400, Nikon, Tokyo, Japan) with a camera (AxioCam ICc5, ZEISS, Jena, Germany).

[6] = system: C. albicans American Type Culture Collection (ATCC) 10,231; assay type: cell-based, Candida albicans; settings: American Type Culture Collection (ATCC) 10,231, 24 h
Experimental: C. albicans (ATCC 10231) from the American Type Culture Collection (Manassas, VA, USA) was cultured at 28 °C on SD agar plates.
To determine the minimum inhibitory concentration (MIC) values of the FITC conjugated-P-113 peptides and their derivatives, a broth microdilution assay was used. Overnight-grown cultures of C. albicans in SD broth were sub-cultured for several hours and subsequently diluted to a final concentration of 5 × 10^4 CFU/mL in Mueller Hinton (MH) broth and LYM broth. A total of 100 μL of diluted microbe was transferred into each well of a 96-well plate, into which a 1 μL dilution series of peptides in sterile water (ranging from 50 to 0.78 μg/mL) was previously added. After incubation for 24 h at 28 ℃, the MIC value of P-113 peptides was determined as the lowest concentration at which no change in optical density was observed. The experiment was conducted three times, and average values were reported.

Candida albicans = assay type: cell-based; settings: 1× MIC, 30 min, SD broth, 28 °C, 5 × 10^4 CFU/mL, normal salt conditions, triplicate
Experimental: Figure 7 Time killing activity of FITC-labeled P-113 peptide and its FITC-labeled derivatives against Candida albicans. Cells were treated with 1× MIC of (a) P-113 (black circle), FITC-labeled N-terminal truncated P-113 (black square), FITC-labeled C-terminal truncated P-113 (black triangle), and (b) treated with FITC-labeled Bip-P-113 (white square), and FITC-labeled Dip-P-113 (white triangle). Killed cells (%) = (cell number in peptide-free control − cell number in sample)/(cell number in peptide-free control) × 100. Error bars represent the standard errors of the mean.
C. albicans were cultivated onto Sabouraud dextrose agar plates overnight and sub-cultured twice before time killing assays. A total of 5 × 10^4 CFU/mL of C. albicans cells were treated with 1× MIC of FITC-conjugated P-113 peptides and their derivatives in SD broth for 10, 20, 30, 60, and 120 min at 28 °C. After that time, serial dilutions (1:10) of the incubation mixtures were added onto SD agar. The numbers of CFU were counted after 24 h of incubation at 28 °C. The percentage of killed cells was calculated by comparison with the number of cells in a control sample incubated without P-113 peptide. The assays were performed in triplicate.

[7] = 10^7 CFU/mL of C. albicans + 0.5 mM pepstatin A; settings: C. albicans (ATCC 10231), 301 K, up to 24 h
[8] = 10^7 CFU/mL of C. albicans in SD broth; settings: C. albicans (ATCC 10231), 301 K, up to 24 h

Compound | Degradation in serum [1] | Cell surface morphology (SEM), short exposure (C. albicans [2]) | Cellular localization of FITC peptide (C. albicans [3]) | MIC, LYM Control [6] [µg/mL] | MIC, MH Broth [6] [µg/mL] | other results
C[C@H](NC(=O)CCCCCNC(=S)Nc1ccc2c(c1)C(=O)OC21c2ccc(O)cc2Oc2cc(O)ccc21)C(=O)N[C@@H](CCCCN)C(=O)N[C@@H](CCCNC(=N)N)C(=O)N[C@H](C(=O)N[C@H](C(=O)NCC(=O)N[C@@H](Cc1ccc(O)cc1)C(=O)N[C@@H](CCCCN)C(=O)N[C@@H](CCCNC(=N)N)C(=O)N[C@@H](CCCCN)C(=O)N[C@@H](Cc1ccccc1)C(=O)N[C@H](C(N)=O)C(c1ccccc1)c1ccccc1)C(c1ccccc1)c1ccccc1)C(c1ccccc1)c1ccccc1 [Dip-P-113] ({FITC-Ahx}-AKR[Dip][Dip]GYKRKF[Dip]-NH2; N-terminus assumed) | protects | became rippled and showed deep pore formation | accumulated on the surface of cells and did not translocate into the cytoplasm | – | – | –
C[C@H](NC(=O)CCCCCNC(=S)Nc1ccc2c(c1)C(=O)OC21c2ccc(O)cc2Oc2cc(O)ccc21)C(=O)N[C@@H](CCCCN)C(=O)N[C@@H](CCCNC(=N)N)C(=O)N[C@@H](Cc1c[nH]cn1)C(=O)N[C@@H](Cc1c[nH]cn1)C(=O)NCC(=O)N[C@@H](Cc1ccc(O)cc1)C(=O)N[C@@H](CCCCN)C(=O)N[C@@H](CCCNC(=N)N)C(=O)N[C@@H](CCCCN)C(N)=O [C-ter truncated P-113] ({FITC-Ahx}-AKRHHGYKRK-NH2; N-terminus assumed) | – | – | – | 50 (≈ 28.1 µM) | >50 | Fluorescence intensity of cells compared with cells incubated with intact P-113 (C. albicans [4]): dramatic decrease in fluorescence intensity; Green fluorescence in cells compared with N-terminal truncated P-113 (C. albicans [5]): less green fluorescence
N=C(N)NCCC[C@H](NC(=O)CCCCCNC(=S)Nc1ccc2c(c1)C(=O)OC21c2ccc(O)cc2Oc2cc(O)ccc21)C(=O)N[C@@H](Cc1c[nH]cn1)C(=O)N[C@@H](Cc1c[nH]cn1)C(=O)NCC(=O)N[C@@H](Cc1ccc(O)cc1)C(=O)N[C@@H](CCCCN)C(=O)N[C@@H](CCCNC(=N)N)C(=O)N[C@@H](CCCCN)C(=O)N[C@@H](Cc1ccccc1)C(=O)N[C@@H](Cc1c[nH]cn1)C(N)=O [N-ter truncated P-113] ({FITC-Ahx}-RHHGYKRKFH-NH2; N-terminus assumed) | – | – | – | 25 (≈ 13.4 µM) | >50 | –
C[C@H](NC(=O)CCCCCNC(=S)Nc1ccc2c(c1)C(=O)OC21c2ccc(O)cc2Oc2cc(O)ccc21)C(=O)N[C@@H](CCCCN)C(=O)N[C@@H](CCCNC(=N)N)C(=O)N[C@@H](Cc1ccc(-c2ccccc2)cc1)C(=O)N[C@@H](Cc1ccc(-c2ccccc2)cc1)C(=O)NCC(=O)N[C@@H](Cc1ccc(O)cc1)C(=O)N[C@@H](CCCCN)C(=O)N[C@@H](CCCNC(=N)N)C(=O)N[C@@H](CCCCN)C(=O)N[C@@H](Cc1ccccc1)C(=O)N[C@@H](Cc1ccc(-c2ccccc2)cc1)C(N)=O [Bip-P-113] ({FITC-Ahx}-AKR[Bip][Bip]GYKRKF[Bip]-NH2; N-terminus assumed) | protects | became rippled and showed deep pore formation | accumulated on the surface of cells and did not translocate into the cytoplasm | – | – | Reduction in cell viability (Candida albicans): 99%
AKRHHGYKRKFH | – | – | – | – | – | not cleaved [7]: no noticeable changes in ^1H-^15N HSQC chemical shifts in the presence of pepstatin A (24 h); cleaved bond [8]: Lys10-Phe11, first_seen, 1 h; also recorded: Tyr7-Lys8, 2–3 h; also recorded: Lys8-Arg9
